Source: PMC5640650, “NatD promotes lung cancer progression by preventing histone H4 serine phosphorylation to activate Slug expression” (Nature Communications, 2017)

Legend:
H1299 cells = test: TGF-β1-induced EMT experiment (morphology), H1299 cells; type: cell-based, human; conditions: TGF-β1-treated NatD knockdown H1299 cells
Source text: Fig. 4 Silencing NatD suppresses cancer cell EMT by downregulating Slug. a Representative phase contrast images of Scr and NatD-KD H1299 cells treated with TGF-β1. Data are representative of three independent experiments. Scale bar, 100 μm. b Quantitative real-time PCR analysis of mRNA levels of indicated key EMT-related genes in Scr and NatD-KD H1299 cells normalized to GAPDH in the absence or presence of TGF-β1. Results are shown as mean ± s.d. of three independent experiments. Two-tailed Student’s t-test was used. **P < 0.01 or *P < 0.05 compared with the indicated control. c Western blot analysis of indicated protein levels in Scr and NatD-KD H1299 cells in the absence or presence of TGF-β1. GAPDH served as a loading control. Data are representative of three independent experiments. d Immunofluorescence analysis of Scr and NatD-KD H1299 cells in the absence or presence of TGF-β1 stained for E-cadherin and N-cadherin. […] (bottom panels) Cells were counted in at least four random microscope fields (×100 magnification) for the corresponding assays; migration and invasion are expressed as a percentage of control. […] Two-tailed Student’s t-test was used. **P < 0.01 compared with the indicated control. g Quantitative real-time PCR analysis of the mRNA levels of NatD and indicated key EMT-related genes (normalized to GAPDH) in Scr cells, NatD-KD cells, and NatD-KD + Slug cells. […]

CK2α = CK2α mRNA and protein expression, H1299 cells; type: cell-based, human; conditions: vs Scr
Procedure: Cellular proteins were extracted by RIPA lysis buffer at high salt concentration (420 mM NaCl), and western blot analysis was performed in accordance with standard protocols. Scans of enhanced chemiluminescence (ECL) films showing uncropped blots are presented in Supplementary Fig. 10. […]
Total RNA from tissue samples and cultured cells was extracted using TRIzol reagent (Invitrogen). cDNAs were synthesized with a HiScript 1st Strand cDNA Synthesis Kit (Vazyme Biotech, China). Quantitative RT-PCR was performed using a FastStart Universal SYBR Green Master (Roche) according to the manufacturer’s instructions in a Rotor-Gene 6000 (Corbett Research) in a final volume of 20 μl. […]
Supplementary Figure 8. […] (a) Quantitative real-time PCR analysis of NatD and CK2α mRNA levels in scrambled and NatD-KD H1299 cells normalized to GAPDH. […]

## NatD-KD2: Human NatD shRNA KD2: 5′-GGTTGAATGTCTCCATTGA-3′, lentiviral (shRNA lentiviral)
H1299 cells
  morphology on TGF-β1 treatment, NatD knockdown cells: mostly retained their rounded epithelial morphology
CK2α
  levels of CK2α mRNA or protein: no increase
